Assay: xn = mol fraction of the nth substance listed
Conditions: Liquid; for mass density / viscosity: 102 kPa; for mass density: Vibrating tube method; for speed of sound: 100 kPa, Frequency=3 MHz, Sing-around technique in a fixed-path interferometer; for viscosity: Concentric cylinders viscometry

CCCCc1ccccc1 [butylbenzene] + CCCCCCCCCCCC
Conditions	mass density [kg/m3]	speed of sound [m/s]	viscosity [mPa·s]
323.15 K, x1 = 0.1241	736.23	–	–
323.15 K, x1 = 0.2414	745.87	–	–
323.15 K, x1 = 0.3524	755.75	–	–
323.15 K, x1 = 0.4583	765.97	–	–
323.15 K, x1 = 0.5593	776.69	–	–
323.15 K, x1 = 0.6552	787.58	–	–
323.15 K, x1 = 0.7575	800.5	–	–
323.15 K, x1 = 0.8349	811.06	–	–
323.15 K, x1 = 0.9194	823.44	–	–
323.15 K, x1 = 1	836.34	–	–
333.15 K, x1 = 0.1241	728.82	1150.5	0.771
333.15 K, x1 = 0.2414	738.39	1153.4	0.745
333.15 K, x1 = 0.3524	748.19	1157	0.722
333.15 K, x1 = 0.4583	758.34	1161	0.703
333.15 K, x1 = 0.5593	768.98	1165.8	0.686
333.15 K, x1 = 0.6552	779.81	1171.3	0.671
333.15 K, x1 = 0.7575	792.63	1178.4	0.657
333.15 K, x1 = 0.8349	803.11	1184.6	0.649
333.15 K, x1 = 0.9194	815.41	1192.5	0.64
333.15 K, x1 = 1	828.21	1201.4	0.636
343.15 K, x1 = 0.1241	721.2	–	0.683
343.15 K, x1 = 0.2414	730.8	–	0.662
343.15 K, x1 = 0.3524	740.5	–	0.643
343.15 K, x1 = 0.4583	750.7	–	0.627
343.15 K, x1 = 0.5593	761.2	–	0.614
343.15 K, x1 = 0.6552	771.9	–	0.602
343.15 K, x1 = 0.7575	784.7	–	0.59
343.15 K, x1 = 0.8349	795.1	–	0.583
343.15 K, x1 = 0.9194	807.2	–	0.576
343.15 K, x1 = 1	819.9	–	0.571
353.15 K, x1 = 0.1241	713.7	–	0.608
353.15 K, x1 = 0.2414	723.2	–	0.591
353.15 K, x1 = 0.3524	732.9	–	0.576
353.15 K, x1 = 0.4583	743	–	0.563
353.15 K, x1 = 0.5593	753.4	–	0.552
353.15 K, x1 = 0.6552	764	–	0.542
353.15 K, x1 = 0.7575	776.7	–	0.532
353.15 K, x1 = 0.8349	787	–	0.526
353.15 K, x1 = 0.9194	799.1	–	0.521
353.15 K, x1 = 1	811.7	–	0.516
363.15 K, x1 = 0.1241	706.1	–	0.546
363.15 K, x1 = 0.2414	715.6	–	0.532
363.15 K, x1 = 0.3524	725.1	–	0.519
363.15 K, x1 = 0.4583	735.2	–	0.508
363.15 K, x1 = 0.5593	745.5	–	0.499
363.15 K, x1 = 0.6552	756	–	0.491
363.15 K, x1 = 0.7575	768.6	–	0.483
363.15 K, x1 = 0.8349	778.9	–	0.478
363.15 K, x1 = 0.9194	790.9	–	0.473
363.15 K, x1 = 1	803.4	–	0.469
373.15 K, x1 = 0.1241	698.5	–	0.493
373.15 K, x1 = 0.2414	707.8	–	0.481
373.15 K, x1 = 0.3524	717.3	–	0.471
373.15 K, x1 = 0.4583	727.2	–	0.461
373.15 K, x1 = 0.5593	737.5	–	0.454
373.15 K, x1 = 0.6552	747.9	–	0.447
373.15 K, x1 = 0.7575	760.5	–	0.44
373.15 K, x1 = 0.8349	770.7	–	0.436
373.15 K, x1 = 0.9194	782.6	–	0.432
373.15 K, x1 = 1	795	–	0.43

Reference: the NIST ThermoML archive (doi:10.1021/acs.jced.6b00542)
